The text below walks through data of patent US7381429B2, “Extracts from sophora species, method for producing the same and their use” (Dr. Willmar Schwabe GmbH & Co., priority 2000, dated 2008).

For data set [1] the following is noted: animal studies; cited from earlier work.
In data set [2] the target is T1, human α oestrogen receptor (Homo sapiens, UniProt P03372).
T1 construct: expressed in transfected cells; host or cells: yeast cells (saccharomyces)
T1 sequence (P03372 1-595): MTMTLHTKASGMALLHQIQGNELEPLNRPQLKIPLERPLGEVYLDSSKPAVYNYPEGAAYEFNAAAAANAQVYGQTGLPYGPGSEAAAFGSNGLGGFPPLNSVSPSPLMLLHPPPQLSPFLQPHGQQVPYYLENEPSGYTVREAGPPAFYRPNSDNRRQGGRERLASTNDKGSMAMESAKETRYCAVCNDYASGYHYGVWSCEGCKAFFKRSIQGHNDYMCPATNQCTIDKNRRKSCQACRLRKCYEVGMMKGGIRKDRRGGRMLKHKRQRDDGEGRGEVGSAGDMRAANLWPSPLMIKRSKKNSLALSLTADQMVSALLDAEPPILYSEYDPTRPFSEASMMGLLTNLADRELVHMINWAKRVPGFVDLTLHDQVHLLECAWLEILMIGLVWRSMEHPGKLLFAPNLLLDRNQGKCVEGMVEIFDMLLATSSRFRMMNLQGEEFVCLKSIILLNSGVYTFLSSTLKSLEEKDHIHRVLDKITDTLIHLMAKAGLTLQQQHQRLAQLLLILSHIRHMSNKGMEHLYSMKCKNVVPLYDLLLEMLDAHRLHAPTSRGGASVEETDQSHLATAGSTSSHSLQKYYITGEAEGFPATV
In words: Reportergen assay for oestrogenic activity with transfected yeast cells. It is filed as cell-based. Conditions: yeast cells expressing human α oestrogen receptor, β galactosidase reporter, 72 hours at 32° C. As for the experimental part:
Testing the ethylacetate extracts produced for oestrogenic activity with transfected yeast cells, which express the human α oestrogen receptor.
The testing of extracts for oestrogenic properties was performed with a Reportergen assay, using yeast cells (saccharomyces). These cells are stable with the human α oestrogen receptor and an expression plasmid which contains an oestrogen response element and the gene for the enzyme β galactosidase. All samples were dissolved in DMSO at a concentration of 20 mg/ml, and were given undiluted or after diluting with DMSO at the ratio of 1/10, 1/100 or at a volume of 1 μl to 100 μl culture medium in 96-well flat-bottom micro-titre dishes. Next, 100 μl yeast suspension and the chromogenous substrate chlorophenolred-β-D-galactopyranoside were added. […] The yeast cells were incubated for 72 hours at 32° C., after which absorption of the medium was measured at 540 nm in a micro-titre dish photometer. The samples were sometimes checked twice.

A further data set deals with Ishikawa-Var-I cells. Conditions: cited from earlier work.

In the case of `O=C1CCC[C@@H]2[C@H]3CCC[N+]4([O-])CCC[C@@H](CN12)[C@@H]34` (some centres unmarked) [oxymatrine], in data set [1], the toxic effects entry is reported as “toxic effects could be shown”.

In the case of `Oc1ccc2c(c1)OC[C@H]1c3cc4c(cc3O[C@@H]21)OCO4` [maackiain], the “oestrogenic activity in yeast assay” value in data set [2] is listed as “relevant to the effectiveness of the extract”. Still for that read-out and setting: for `OC[C@H]1O[C@@H](Oc2ccc3c(c2)OC[C@H]2c4cc5c(cc4O[C@@H]32)OCO5)[C@H](O)[C@@H](O)[C@@H]1O` [maackiain glucoside] the value was “relevant to the effectiveness of the extract”.

Turning to `CC(C)=CCc1c(O)cc(O)c2c1O[C@H](c1ccc(O)cc1)CC2=O` [8-prenylnaringenine], the “oestrogenic effect compared with 17β oestradiol” value in the data set with Ishikawa-Var-I cells (versus 17β oestradiol) is “only a slightly weaker effect than 17β oestradiol”. Further, the “oestrogenic potency compared with known phyto-oestrogens” value with Ishikawa-Var-I cells (versus coumestrol, genistein or daidzein) is reported as “significantly more active than the phyto-oestrogens known so far”.
